Results on one compound are retold here after patent US11426448B2, “Methods for treatment of erectile dysfunction with sonic hedgehog compounds” (NORTHWESTERN UNIVERSITY, priority 2018, dated 2022).

The experiment deals with MPG/CN neurons. Kind of experiment: MPG/CN organ culture with Affi-Gel beads, quantification of neurites. In kind it is cell-based, Sprague Dawley rats. Conditions: uninjured MPG/CN, three days, SHH inhibitors on Affi-Gel beads, vs DMSO or PBS.

Each structure is given as a SMILES string.

Consider `CC1=C2C[C@H]3[C@@H](CC=C4C[C@@H](O)CC[C@@]43C)[C@@H]2CC[C@]12O[C@@H]1C[C@H](C)CN[C@H]1[C@H]2C` [cyclopamine], for which the neurite formation reduced is 5.6 fold and the “neurite formation reduced / inhibited” value is on record as 82%.
